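Dose response: 5 concentrations. Exposure: 48 h. Format: 96-well plates. Endpoint: linear interpolation; highest concentration if not reached. GI50 = concentration required for 50% inhibition of growth. The concentration for full growth arrest is given as TGI.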
What was measured:
Experiment in all cases: inhibition of tumour cell growth, NCI panel, 48 h
[1] = test system: MDA-MB-435
[2] = test system: UACC-257 melanoma
[3] = test system: NCI-H522 lung
[4] = test system: CCRF-CEM leukemia
[5] = test system: SN12C renal
[6] = test system: NCI-H226 lung
[7] = test system: HS 578T breast
[8] = test system: BT-549 breast
[9] = test system: HCC-2998 colon
[10] = test system: SF-295 CNS

## CSc1ccc(-c2cc(-c3ccc(NC(=O)CCCN4CCCC4)cc3)nc(-c3ccc(NC(=O)CCCN4CCCC4)cc3)c2)cc1
[1]
  GI50: 1.68 µM
  TGI: 3.06 µM
[2]
  GI50: 4.94 µM
  TGI: 25.2 µM
[3]
  GI50: 1.91 µM
  TGI: 3.59 µM
[4]
  GI50: 1.9 µM
  TGI: 3.61 µM
[5]
  GI50: 3.46 µM
  TGI: 17.1 µM
[6]
  GI50: 3.12 µM
  TGI: 16.1 µM
[7]
  GI50: 2.28 µM
  TGI: 6.38 µM
[8]
  GI50: 2.21 µM
  TGI: 5.49 µM
[9]
  GI50: 2.49 µM
  TGI: 6.5 µM
[10]
  GI50: 3.29 µM
  TGI: 15.4 µM

## CCN(CC)CCOc1ccc(Nc2ncc3cc(-c4c(Cl)cccc4Cl)c(=O)n(CCOC)c3n2)cc1
[1]
  GI50: 0.469 µM
  TGI: 2.5 µM
[2]
  GI50: 0.881 µM
  TGI: 4.58 µM
[3]
  GI50: 0.134 µM
  TGI: 1.8 µM
[4]
  GI50: 1.11 µM
  TGI: 18.1 µM
[5]
  GI50: 0.0237 µM
  TGI: 5.37 µM
[6]
  GI50: 0.1 µM
  TGI: 7.89 µM
[7]
  GI50: 0.0273 µM
  TGI: 1.57 µM
[8]
  GI50: 0.533 µM
  TGI: 2.7 µM
[9]
  GI50: 1.25 µM
  TGI: 3.57 µM
[10]
  GI50: 0.375 µM
  TGI: 6.07 µM

## CCc1ccc(-c2ccc(=O)n(-c3ccc(S(N)(=O)=O)cc3)n2)cc1
[1]
  GI50: 0.252 µM
  TGI: 1.71 µM
[2]
  GI50: > 30.9 µM
  TGI: > 100 µM
[3]
  GI50: 0.182 µM
  TGI: 4.18 µM
[4]
  GI50: 1.22 µM
  TGI: > 100 µM
[5]
  GI50: 9.88 µM
  TGI: > 100 µM
[6]
  GI50: 21.1 µM
  TGI: > 100 µM
[7]
  GI50: 1.55 µM
  TGI: 23.6 µM
[8]
  GI50: 0.916 µM
  TGI: 21.7 µM
[9]
  TGI: > 100 µM
[10]
  GI50: 0.992 µM
  TGI: 29.4 µM

## COc1ccc(Nc2ccnc(NCCNc3ccnc4cc(Cl)ccc34)n2)cc1
[1]
  GI50: 1.5 µM
  TGI: 2.9 µM
[2]
  GI50: 1.97 µM
  TGI: 4.25 µM
[3]
  GI50: 2.38 µM
  TGI: 7.8 µM
[4]
  GI50: 1.65 µM
  TGI: 8.23 µM
[5]
  GI50: 3.73 µM
  TGI: 18.4 µM
[6]
  GI50: 7.29 µM
  TGI: 21.1 µM
[7]
  GI50: 2 µM
  TGI: 5.91 µM
[8]
  GI50: 1.86 µM
  TGI: 7.01 µM
[9]
  GI50: 1.5 µM
  TGI: 3.48 µM
[10]
  GI50: 1.03 µM
  TGI: 2.78 µM

## OCc1cccc(-c2ccc3ncc(-c4nc(NC5CC5)ncc4F)n3c2)c1
[1]
  GI50: 0.284 µM
  TGI: 0.919 µM
[2]
  GI50: 0.372 µM
  TGI: 1.79 µM
[3]
  GI50: 0.316 µM
  TGI: 2.34 µM
[4]
  GI50: 0.249 µM
  TGI: 2.69 µM
[5]
  GI50: 0.281 µM
  TGI: 1.57 µM
[6]
  GI50: 0.301 µM
  TGI: 1.47 µM
[7]
  GI50: 0.212 µM
  TGI: 0.701 µM
[8]
  GI50: 0.23 µM
  TGI: 0.811 µM
[9]
  GI50: 0.333 µM
  TGI: 2.17 µM
[10]
  GI50: 0.334 µM
  TGI: 1.59 µM

## Nc1c(C(=O)c2cccc(-c3ccc[n+]([O-])c3)c2)cnn1-c1ccc(F)cc1F
[1]
  GI50: 15.2 µM
  TGI: > 25 µM
[2]
  GI50: > 25 µM
  TGI: > 25 µM
[3]
  GI50: > 25 µM
  TGI: > 25 µM
[4]
  GI50: > 25 µM
  TGI: > 25 µM
[5]
  GI50: > 25 µM
  TGI: > 25 µM
[6]
  GI50: > 25 µM
  TGI: > 25 µM
[7]
  GI50: > 25 µM
  TGI: > 25 µM
[8]
  GI50: > 25 µM
  TGI: > 25 µM
[9]
  GI50: > 25 µM
  TGI: > 25 µM
[10]
  GI50: > 25 µM
  TGI: > 25 µM

From PubChem BioAssay (NCI)
